Data reported in US9918981B2, “Liquid buprenorphine formulations” (Insys Development Company, Inc., priority 2013, dated 2018).

Experiment: Bioavailability of buprenorphine sublingual spray vs Buprenex intramuscular and intravenous injection, crossover study
Conditions: for AUC(0-t) / AUC(inf) / Cmax / Tmax / t½ / λz: overnight fast
[1] = Intramuscular 0.3 mg (Buprenex injection)
[2] = Intravenous 0.3 mg (Buprenex bolus injection)
[3] = after sublingual administration (1 mg spray)

Source text: This was an open-label, 3-treatment, 3-period, 6-sequence, single-dose, randomized crossover study. Eighteen healthy male and female volunteers were randomly assigned to 1 of 6 treatment sequences. Dosing occurred after an overnight fast and there was a minimum 14-day washout between the dosing in two periods.

Question: Which results are given for Buprenorphine?
Answer: AUC(0-t) [1]: 4.97 ± 0.90 ng·h/mL; AUC(inf) [1]: 5.50 ± 0.83 ng·h/mL; Cmax [1]: 1.73 ± 1.08 ng/mL; Tmax [1]: 0.17 h; t½ [1]: 12.0 ± 5.31 h; λz [1]: 0.0655 ± 0.0210; AUC(0-t) [2]: 5.09 ± 1.01 ng·h/mL; AUC(inf) [2]: 5.51 ± 1.21 ng·h/mL; Cmax [2]: 3.95 ± 3.66 ng/mL; Tmax [2]: 0.083 h; t½ [2]: 9.37 ± 6.49 h; λz [2]: 0.1028 ± 0.0641; absolute bioavailability based on AUC(0-t) [3]: 41.03%; absolute bioavailability based on AUC(inf) [3]: 42.57%
